The values below come from patent US20240343727A1, “PYRIDAZINONE OR PYRIDINONE COMPOUNDS, PREPARATION METHODS AND USES THEREOF” (InventisBio Co., Ltd., priority 2021, published 2024).

Bounds are passed on as bounds.

The target in one test is T1, PARP7 (Homo sapiens, UniProt Q7Z3E1).
T1 sequence (Q7Z3E1 1-657): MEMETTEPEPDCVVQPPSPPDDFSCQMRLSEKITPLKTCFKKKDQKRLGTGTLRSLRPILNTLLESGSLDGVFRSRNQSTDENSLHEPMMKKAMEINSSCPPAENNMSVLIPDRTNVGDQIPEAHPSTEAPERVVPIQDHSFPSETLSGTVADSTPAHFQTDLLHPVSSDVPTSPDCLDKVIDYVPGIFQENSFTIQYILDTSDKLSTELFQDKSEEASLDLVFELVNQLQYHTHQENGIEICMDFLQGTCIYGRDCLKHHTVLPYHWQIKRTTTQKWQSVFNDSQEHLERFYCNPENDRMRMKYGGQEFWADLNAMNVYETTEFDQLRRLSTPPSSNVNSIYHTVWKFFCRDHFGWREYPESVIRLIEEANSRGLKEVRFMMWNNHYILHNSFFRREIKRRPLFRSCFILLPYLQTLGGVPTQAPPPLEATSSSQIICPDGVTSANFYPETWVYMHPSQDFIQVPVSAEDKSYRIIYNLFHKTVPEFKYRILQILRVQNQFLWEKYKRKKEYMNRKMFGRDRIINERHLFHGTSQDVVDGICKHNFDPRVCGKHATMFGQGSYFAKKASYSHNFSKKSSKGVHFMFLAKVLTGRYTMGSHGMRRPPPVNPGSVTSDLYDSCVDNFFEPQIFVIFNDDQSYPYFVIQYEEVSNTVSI
Description: PARP7 TR-FRET assay (binding, displacement of biotinylated Probe A). The note with it: 6 nM PARP7, 2 nM Probe A, 25° C., 30 min. In outline: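 His-tagged PARP7 at 6 nM was preincubated with compound and 2 nM biotinylated Probe A for 30 min at 25° C (HEPES pH 8.0, NaCl, BSA, DTT, Tween20). Europium-streptavidin/ULight-anti-His FRET was read as the 665/615 nm ratio after a further 30 min. IC50 was fitted from % inhibition normalised to vehicle and blank.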
A general note: TR-FRET usually uses a lanthanide donor and a delayed reading to cut background.
`O=C(c1cc(Oc2n[nH]c(=O)c(C(F)(F)F)c2N2CC3(CCC3)C2)ccn1)N1CCN(c2cnc(C(F)(F)F)cn2)CC1` [Compound 272] registered an IC50 of under 100 nM.

`O=C(COC1CCOc2c1n[nH]c(=O)c2C(F)F)N1CCN(c2ncc(C(F)(F)F)cn2)CC1` (single isomer, unassigned) [Compound 114] displayed an IC50 of over 1000 nM. `C[C@H]1CN(C(=O)c2cccc(Oc3n[nH]c(=O)c(C(F)(F)F)c3N3CC4(CCO4)C3)c2)CCN1c1ncc(C(F)(F)F)cn1` [Compound 254] returned an IC50 of under 100 nM.

In turn, `N#CC1(c2ccnc(N3CCN(C(=O)CC4CN(c5cc(C(F)(F)F)c(=O)[nH]n5)c5cc(Cl)ccc5O4)CC3)n2)CC1` (single isomer, unassigned) [Compound 345] registered an IC50 of over 1000 nM. For `N#Cc1ccc2c(N3CCOC(CC(=O)N4CCN(c5ncc(C(F)(F)F)cn5)CC4)C3)n[nH]c(=O)c2c1` (stereo not shown) [Compound 243], the IC50 lay in the range of 100 to 1000 nM. On to `CS(=O)(=O)Cc1ccc2c(c1)N(c1cc(C(F)(F)F)c(=O)[nH]n1)CC(CC(=O)N1CCN(c3ncc(C(F)(F)F)cn3)CC1)O2` (single isomer, unassigned) [Compound 271], for which the IC50 was under 100 nM. For `O=C(c1cc(Oc2n[nH]c(=O)c(C(F)(F)F)c2N2CC3(C2)CC(F)(F)C3)ccn1)N1CCN(c2ncc(C(F)(F)F)cn2)CC1` [Compound 304], the IC50 is under 100 nM.

`O=C(CC1CN(c2cc(C(F)(F)F)c(=O)[nH]n2)c2cc(C3CC3)ccc2O1)N1CCN(c2ncc(C(F)(F)F)cn2)CC1` (single isomer, unassigned) [Compound 134]: the IC50 is under 100 nM. `O=C(CC1CN(c2cc(C(F)(F)F)c(=O)[nH]n2)c2ccccc2O1)N1CCN(c2nnc(C(F)(F)F)s2)CC1` (single isomer, unassigned) [Compound 288] displayed an IC50 of over 1000 nM. On the same count and under the same terms, the result for `Cc1c(Oc2cccc(C(=O)N3CC[C@H](Oc4ncc(C(F)(F)F)cn4)C3)c2)n[nH]c(=O)c1C(F)(F)F` [Compound 28] reads over 1000 nM; that for `N#Cc1ccc2c(c1)N(c1cc(C(F)(F)F)c(=O)[nH]n1)CC(CC(=O)N1CCN(c3ncc(C(F)(F)F)cn3)CC1)O2` (single isomer, unassigned) [Compound 201], 100 to 1000 nM. Still for that read-out and setting: the result for `CN1CC[C@H](OCC(=O)N2CCN(c3ncc(C(F)(F)F)cn3)CC2)c2n[nH]c(=O)c(C(F)(F)F)c21` (single isomer, unassigned) [Compound 5] reads 100 to 1000 nM. With `Cc1c(N2CCC[C@H]2CCC(=O)N2CCN(c3ncc(C(F)(F)F)cn3)CC2)n[nH]c(=O)c1C(F)(F)F` [Compound 127], the IC50 is under 100 nM. Same read-out and setting: the result for `O=C(c1cccc(Oc2n[nH]c(=O)c(C(F)(F)F)c2N2CC3(CCCO3)C2)c1)N1CCN(c2ncc(C(F)(F)F)cn2)CC1` [Compound 162] reads under 100 nM; that for `C#Cc1cnc(N2CCN(C(=O)c3cc(Oc4n[nH]c(=O)c(C(F)(F)F)c4N4CC5(C4)CC(F)(F)C5)ccn3)CC2)nc1` [Compound 317], under 100 nM; that for `N#Cc1cnc(N2CCN(C(=O)c3cc(Oc4n[nH]c(=O)c(C(F)(F)F)c4N4CC5(CCC5)C4)ccn3)CC2)nc1` [Compound 273], under 100 nM. Still for that read-out and setting: the result for `CC(C)(O)c1cnc(N2CCN(C(=O)CC3CN(c4cc(C(F)(F)F)c(=O)[nH]n4)c4cc(Cl)ccc4O3)CC2)nc1` (single isomer, unassigned) [Compound 151] reads under 100 nM; that for `C[C@H]1CN(c2cc(C(F)(F)F)c(=O)[nH]n2)C[C@@H](CC(=O)N2CCN(c3ncc(C(F)(F)F)cn3)CC2)O1` (stereo in doubt) [Compound 79], under 100 nM. Molecule `C#Cc1cc(N2CCOC(CC(=O)N3CCN(c4ncc(C(F)(F)F)cn4)CC3)C2)n[nH]c1=O` (single isomer, unassigned) [Compound 45] returned an IC50 of 100 to 1000 nM. In turn, `O=C(CC1CN(c2n[nH]c(=O)c3ncccc23)CCO1)N1CCN(c2ncc(C(F)(F)F)cn2)CC1` (single isomer, unassigned) [Compound 126] showed an IC50 of over 1000 nM. Molecule `Cc1c(Oc2cncc(C(=O)N3CCN(c4ncc(C(F)(F)F)cn4)CC3)c2)n[nH]c(=O)c1C(F)(F)F` [Compound 20] yielded an IC50 of under 100 nM. In turn, `O=C(c1cncc(Oc2n[nH]c(=O)c(C(F)(F)F)c2N2CC(C3CC3)C2)c1)N1CCN(c2ncc(C(F)F)cn2)CC1` [Compound 279] displayed an IC50 of under 100 nM. The same measure, in the same setting: next, `O=C(C[C@@H]1CCCN1c1n[nH]c(=O)c2ccccc12)N1CCN(c2ncc(C(F)(F)F)cn2)CC1` [Compound 47]: over 1000 nM; `O=C(c1cccc(Oc2n[nH]c(=O)c(C(F)(F)F)c2N2CC3(CCC3)C2)c1)N1CCN(c2ncc(C(F)(F)F)cn2)CC1` [Compound 70]: under 100 nM; `N#Cc1ccc(N2CCN(C(=O)[C@@H]3COCCN3c3cc(C(F)(F)F)c(=O)[nH]n3)CC2)nc1` [Compound 37]: under 100 nM.

In turn, `Cc1c(Nc2cccc(C(=O)N3CCN(c4ncc(C(F)(F)F)cn4)CC3)c2)n[nH]c(=O)c1C(F)(F)F` [Compound 76] gave an IC50 of under 100 nM. The same measure, in the same setting: the result for `O=C(CC1CN(c2cc(C(F)(F)F)c(=O)[nH]n2)c2ccccc2O1)N1CCN(c2ccc(C3CC3)cn2)CC1` (single isomer, unassigned) [Compound 285] reads under 100 nM; that for `O=C(CC1CN(c2n[nH]c(=O)c3ncccc23)CCO1)N1CCN(c2ncc(C(F)(F)F)cn2)CC1` (single isomer, unassigned) [Compound 125], under 100 nM. Molecule `O=C(CC1CN(c2n[nH]c(=O)c3cc(OCC(F)F)ccc23)CCO1)N1CCN(c2ncc(C(F)(F)F)cn2)CC1` (single isomer, unassigned) [Compound 208] had an IC50 of over 1000 nM. For the molecule `O=C(c1cccc(Oc2n[nH]c(=O)c(C(F)(F)F)c2N2CC3(CCC3)C2)c1)N1CCC(F)(F)CC1` [Compound 159], the IC50 lay in the range of 100 to 1000 nM. Molecule `C[C@@H]1CN(c2n[nH]c(=O)c3c(F)cccc23)C[C@@H](CC(=O)N2CCN(c3ncc(C(F)(F)F)cn3)CC2)O1` (stereo in doubt) [Compound 96] displayed an IC50 of 100 to 1000 nM. Regarding `N#Cc1ccc2c(c1)N(c1cc(C(F)(F)F)c(=O)[nH]n1)CC(CC(=O)N1CCN(c3ccc(C(F)(F)F)cn3)CC1)O2` (single isomer, unassigned) [Compound 154], the IC50 is under 100 nM. The same measure, in the same setting: the result for `COCCNC(=O)c1ccc2c(c1)N(c1cc(C(F)(F)F)c(=O)[nH]n1)CC(CC(=O)N1CCN(c3ncc(C(F)(F)F)cn3)CC1)O2` (single isomer, unassigned) [Compound 310] reads under 100 nM; that for `CO[C@H]1C[C@H](Nc2c(Oc3cccc(C(=O)N4CCN(c5ncc(C(F)(F)F)cn5)CC4)c3)n[nH]c(=O)c2C(F)(F)F)C1` [Compound 190], under 100 nM. With `O=C(c1cccc(Oc2n[nH]c(=O)c(C(F)(F)F)c2N2CC3(CCO3)C2)c1)N1CCN(c2ncc(C(F)(F)F)cn2)C2(CC2)C1` [Compound 253], the IC50 is under 100 nM.

In turn, `O=C(c1cccc(Oc2n[nH]c(=O)c(C(F)(F)F)c2N2CC3CC3C2)c1)N1CCN(c2ncc(C(F)(F)F)cn2)CC1` (stereo not shown) [Compound 68] gave an IC50 of under 100 nM. Take `C#Cc1cnc(N2CCN(C(=O)c3cccc(Oc4n[nH]c(=O)c(C(F)(F)F)c4N4CC5(CCCO5)C4)c3)CC2)nc1` [Compound 275]: the IC50 is under 100 nM. Same read-out and setting: the result for `O=C(CC1CN(c2n[nH]c(=O)c3ccc(N4CCCC4)cc23)CCO1)N1CCN(c2ncc(C(F)(F)F)cn2)CC1` (single isomer, unassigned) [Compound 258] reads under 100 nM. Take `O=C(c1cccc(Oc2n[nH]c(=O)c(C(F)(F)F)c2C#CC2CC2)c1)N1CCN(c2ncc(C(F)(F)F)cn2)CC1` [Compound 139]: the IC50 lay in the range of 100 to 1000 nM. For `Cc1c(N2C[C@H](CC(=O)N3CCN(c4ncc(C(F)(F)F)cn4)CC3)O[C@H](C)C2)n[nH]c(=O)c1C(F)(F)F` (stereo in doubt) [Compound 41], the IC50 was under 100 nM. `C[C@@H]1CN(C(=O)CC2CN(c3cc(C(F)(F)F)c(=O)[nH]n3)c3cc(Cl)ccc3O2)CCN1c1ncc(C#N)cn1` (single isomer, unassigned) [Compound 329] had an IC50 of under 100 nM.

In a further test the test system is NCI-H1373 cells. In words: Inhibition of cancer cell growth in NCI-H1373 cells (Cell-titer Glo, 6 days). The class given is cell-based. The conditions noted are these: Homo sapiens, NCI-H1373, 144 h, read-out: H1373 Cell Proliferation IC50. The procedure:
Biological Assay Example B: Inhibition of cancer cell growth in NCI-H1373 cells by PARP7 inhibitors
NCI-H1373 cells were cultured in RPMI 1640 medium supplemented with 10% fetal bovine serum, 100 U/mL penicillin and 100 ug/mL streptomycin in a 37° C., 5% CO2 incubator. Fifteen hundred cells were seeded into each well of 96-well plate in RPMI1640 medium containing 10% fetal bovine serum and incubated overnight. Serial diluted compounds for each well were added at a final DMSO concentration of 0.5% and a day zero plate was collected for analysis. Compounds were incubated with the cells for 6 days. Cell growth was assessed using Cell-titer Glo reagent (Promega #G^7572). The luminescence signal was collected on Tecan Spark plate reader. Cell growth is determined by correcting for the cell count on day zero. Inhibition rate is calculated with the formula of % inhibition=100*(DMSO control-compounds)/(DMSO control-Blank). Cell growth inhibition IC50 is calculated with the equation of Y-Bottom+ (Top-Bottom)/(1+10^((LogIC50−X) *Hill Slope)).
For the molecule `O=C(c1cc(Oc2n[nH]c(=O)c(C(F)(F)F)c2N2CC3(CCC3)C2)ccn1)N1CCN(c2cnc(C(F)(F)F)cn2)CC1` [Compound 272], the IC50 was under 100 nM. In the case of `O=C(COC1CCOc2c1n[nH]c(=O)c2C(F)F)N1CCN(c2ncc(C(F)(F)F)cn2)CC1` (single isomer, unassigned) [Compound 114], the IC50 was over 1000 nM.
